Test results: patent publication US20230414552A1, “NOVEL METHODS” (Colgate-Palmolive Company, priority 2020, published 2023)

Experiments:
Type in all cases: cell-based
GMSC = test: BrdU incorporation assay of GMSC proliferation; conditions: for Brdu + BMSC/Total Cells (%): control 28.1% ± 0.75
CD3+ T cells = test: PDLSC/T cell co-culture, flow cytometric analysis of apoptotic T cells; conditions: flow cytometry
Procedure: PEITC and resveratrol are tested to determine whether they contribute to PDLSC immunomodulation. A PDLSC/T cell co-culture experiment examines the immunomodulatory properties of PDLSCs with different compounds treatment.

BMSCs = test: BrdU analysis of BMSC proliferation (control cells); conditions: BMSCs as control cells
From the text: (§1) To examine whether ERK activator can elevate PDLSC function through Wnt signaling, five different ERK activators are used to treat PDLSCs, and BMSCs (“Bone marrow-derived mesenchymal stem/stromal cells”) serve as the control in this experiment.

PDLSCs [1] = test: BrdU analysis of PDLSC proliferation; conditions: ERK activator treatment of PDLSCs
From the text: as §1

PDLSCs [2] = test: Alizarin red staining of PDLSC osteogenesis under osteogenic induction; conditions: for Mineralized Area (% Total Area): control 47% ± 3.61
Procedure: To examine the effect of natural compounds PEITC and resveratrol in PDLSC osteogenesis, cells are treated with 1 uM PEITC or 5 uM resveratrol under osteogenic induction. […] The stained positive areas are then quantifiable using NIH ImageJ software and shown as a percentage of the total area. To examine the effect of natural compounds yellow and white curcumin extracts in GMSC and PDLSC osteogenesis, cells are treated with 5 μM yellow and white curcumin extracts under osteogenic induction. Alizarin red staining show yellow curcumin extract, but not white curcumin extract treatment elevated osteogenic differentiation, as indicated by increased mineralized nodule formation. The stained positive areas were quantified using NIH ImageJ software and shown as a percentage of the total area.

Wnt/β-catenin = test: Western blot of ERK downstream signaling in PDLSCs; conditions: PDLSCs after treatment
From the text: Subsequently, ERK downstream signaling pathways involve screening using a Western blot technique. This includes screening for Shp2 signaling, Notch signaling, and Wnt signaling.

PDLSCs [3] = test: Western blot of osteogenic genes Runx2 and ALP in PDLSCs; conditions: PDLSC, 1 uM PEITC or 5 uM resveratrol, osteogenic induction
Procedure: The expression of the osteogenic genes runt-related transcription factor 2 (Runx2) and alkaline phosphatase (ALP) are also elevated in PEITC or resveratrol treated groups, assessable by Western blot. […] To examine the effect of natural compounds yellow and white curcumin extracts in GMSC and PDLSC osteogenesis, cells are treated with 5 μM yellow and white curcumin extracts under osteogenic induction. Alizarin red staining show yellow curcumin extract, but not white curcumin extract treatment elevated osteogenic differentiation, as indicated by increased mineralized nodule formation. The stained positive areas were quantified using NIH ImageJ software and shown as a percentage of the total area.

PDLSCs [4] = test: Toluidine blue staining of surviving PDLSCs after co-culture with activated T cells
From the text: After co-culture, toluidine blue staining allows for observation of the surviving PDLSCs that remain on the culture plates as positive staining. […] Natural ERK activators, PEITC and resveratrol, protect PDLSCs survival.

S=C=NCCc1ccccc1 [PEITC, Phenethyl Isothiocyanate]
GMSC cell proliferation (BrdU incorporation assay) (GMSC; 1 uM): significantly elevated | Brdu + BMSC/Total Cells (%) (GMSC; 1 μM): 48.6% ± 4.79 | PDLSC immunomodulation (AnnexinV+7AAD+ double positive apoptotic CD3+ T cells) (CD3+ T cells): significantly promotes | effect on proliferation rate in BMSCs (BrdU analysis) (BMSCs): not observable | PDLSC proliferation rate (BrdU analysis) (PDLSCs [1]): significantly increases | osteogenic differentiation, mineralized nodule formation (Alizarin red staining) (PDLSCs [2]; 1 uM PEITC): elevate | Mineralized Area (% Total Area) (PDLSCs [2]; 1 μM): 65% ± 3.46 | Wnt/β-catenin activation (Western blot) (Wnt/β-catenin): highly activated | expression of Runx2 (Western blot) (PDLSCs [3]): elevated | expression of alkaline phosphatase (ALP) (Western blot) (PDLSCs [3]): elevated | PDLSC survival from activated T cell attack (toluidine blue staining) (PDLSCs [4]): protect

CC(C)(C)c1cc(O)ccc1O [t-Butylhydroquinone, reference compound]
effect on proliferation rate in BMSCs (BrdU analysis) (BMSCs): not observable | PDLSC proliferation rate (BrdU analysis) (PDLSCs [1]): significantly increases | Wnt/β-catenin activation (Western blot) (Wnt/β-catenin): highly activated

Oc1ccc(/C=C/c2cc(O)cc(O)c2)cc1 [resveratrol, 3,5,4′-trihydroxy-trans-stilbene]
GMSC cell proliferation (BrdU incorporation assay) (GMSC; 5 uM): significantly elevated | Brdu + BMSC/Total Cells (%) (GMSC; 5 μM): 47.6% ± 3.17 | PDLSC immunomodulation (AnnexinV+7AAD+ double positive apoptotic CD3+ T cells) (CD3+ T cells): significantly promotes | effect on proliferation rate in BMSCs (BrdU analysis) (BMSCs): not observable | PDLSC proliferation rate (BrdU analysis) (PDLSCs [1]): significantly increases | osteogenic differentiation, mineralized nodule formation (Alizarin red staining) (PDLSCs [2]; 5 uM resveratrol): elevate | Mineralized Area (% Total Area) (PDLSCs [2]; 5 μM): 59% ± 2.00 | Wnt/β-catenin activation (Western blot) (Wnt/β-catenin): highly activated | expression of Runx2 (Western blot) (PDLSCs [3]): elevated | expression of alkaline phosphatase (ALP) (Western blot) (PDLSCs [3]): elevated | PDLSC survival from activated T cell attack (toluidine blue staining) (PDLSCs [4]): protect
